≈ marks a conversion by molar mass, not a printed value. Read-outs that look alike come from different tables or passages of the source.
How the values were obtained:
Assay in all cases: agar dilution test (MIC)
Assay type in all cases: cell-based
E.coli 055 = conditions: Escherichia coli, Mueller Hinton agar, 16 to 18 hours at 37°C, read-out: Minimum Inhibitory Concentration (MIC)
Protocol: (§1) The antimicrobial activity was determined by measuring the Minimum Inhibitory Concentration (MIC). The MIC of the compounds was determined by a standard test, the "agar dilution test" according to Lorian (Antibiotics in Laboratory Medicine, Williams and Wilkins, Baltimore/London 1980) as follows:
(§2) A two-fold decreasing concentration series of each compound was prepared in Petri dishes containing 15 ml of Mueller Hinton agar (Difco). One Petri dish containing only the Mueller Hinton agar served as control for bacterial growth. Each Petri dish was inoculated with a multi-point inoculator (Denley), which transferred 0.6µl of a 1:100 diluted 18 hours culture of the appropriate test bacterium. After 16 to 18 hours of incubation at 37°C the Petri dishes were examined for growth of bacteria. The lowest concentration of the compound which causes complete inhibition of growth is taken as the MIC except that the growth of a single colony or a haze is not taken as evidence of qrowth.

Str.pyogenes 308A = conditions: Streptococcus pyogenes, Mueller Hinton agar, 16 to 18 hours at 37°C, read-out: Minimum Inhibitory Concentration (MIC)
Protocol: as §1, §2

Staph.aureus 285 = conditions: Staphylococcus aureus, Mueller Hinton agar, 16 to 18 hours at 37°C, read-out: Minimum Inhibitory Concentration (MIC)
Protocol: as §1, §2

Kl.aerog. 1522E = conditions: read-out: Minimum Inhibitory Concentration (MIC)
Protocol: as §1, §2

Str.faecium D = conditions: Enterococcus faecium, read-out: Minimum Inhibitory Concentration (MIC)
Protocol: as §1, §2

Staph.aureus SG511 = conditions: Staphylococcus aureus, Mueller Hinton agar, 16 to 18 hours at 37°C, read-out: Minimum Inhibitory Concentration (MIC)
Protocol: as §1, §2

Staph.aureus 503 = conditions: Staphylococcus aureus, Mueller Hinton agar, 16 to 18 hours at 37°C, read-out: Minimum Inhibitory Concentration (MIC)
Protocol: as §1, §2

E.coli DC0 = conditions: Escherichia coli, Mueller Hinton agar, 16 to 18 hours at 37°C, read-out: Minimum Inhibitory Concentration (MIC)
Protocol: as §1, §2

E.coli KN126 = conditions: Escherichia coli, Mueller Hinton agar, 16 to 18 hours at 37°C, read-out: Minimum Inhibitory Concentration (MIC)
Protocol: as §1, §2

Bac.subt. ATCC6633 = conditions: Mueller Hinton agar, 16 to 18 hours at 37°C, read-out: Minimum Inhibitory Concentration (MIC)
Protocol: as §1, §2

E.coli 1507E = conditions: Escherichia coli, read-out: Minimum Inhibitory Concentration (MIC)
Protocol: as §1, §2

Ent.cloacae 1321E = conditions: Enterobacter cloacae, read-out: Minimum Inhibitory Concentration (MIC)
Protocol: as §1, §2

Ent.cloacae P99 = conditions: Enterobacter cloacae, Mueller Hinton agar, 16 to 18 hours at 37°C, read-out: Minimum Inhibitory Concentration (MIC)
Protocol: as §1, §2

Salm.typh. MZII = conditions: Mueller Hinton agar, 16 to 18 hours at 37°C, read-out: Minimum Inhibitory Concentration (MIC)
Protocol: as §1, §2

E.coli TEM = conditions: Escherichia coli, read-out: Minimum Inhibitory Concentration (MIC)
Protocol: as §1, §2

Kl.aerog. 1082E = conditions: Mueller Hinton agar, 16 to 18 hours at 37°C, read-out: Minimum Inhibitory Concentration (MIC)
Protocol: as §1, §2

E.coli DC2 = conditions: Escherichia coli, Mueller Hinton agar, 16 to 18 hours at 37°C, read-out: Minimum Inhibitory Concentration (MIC)
Protocol: as §1, §2

Str.pyogenes 77A = conditions: Streptococcus pyogenes, Mueller Hinton agar, 16 to 18 hours at 37°C, read-out: Minimum Inhibitory Concentration (MIC)
Protocol: as §1, §2

[1] = Str.faecium D, Mueller Hinton agar, 16 to 18 hours at 37°C
[2] = Kl.aerog. 1522E, Mueller Hinton agar, 16 to 18 hours at 37°C
[3] = E.coli 1507E, Mueller Hinton agar, 16 to 18 hours at 37°C
[4] = Ent.cloacae 1321E, Mueller Hinton agar, 16 to 18 hours at 37°C

SMILES	MIC (E.coli 055) [µg/mL]	MIC (Str.pyogenes 308A) [µg/mL]	MIC (Staph.aureus 285) [µg/mL]	MIC (Kl.aerog. 1522E) [µg/mL]	MIC (Str.faecium D; [1]) [µg/mL]	MIC (Staph.aureus SG511) [µg/mL]	MIC (Staph.aureus 503) [µg/mL]	MIC (E.coli DC0) [µg/mL]	MIC (E.coli KN126) [µg/mL]	MIC (Bac.subt. ATCC6633) [µg/mL]	MIC (E.coli 1507E; 1507E) [µg/mL]	MIC (Ent.cloacae 1321E; 1321E) [µg/mL]	MIC (Ent.cloacae P99) [µg/mL]	MIC (Salm.typh. MZII) [µg/mL]	MIC (E.coli TEM) [µg/mL]	MIC (Kl.aerog. 1082E) [µg/mL]	MIC (E.coli DC2) [µg/mL]	MIC (Str.pyogenes 77A) [µg/mL]	MIC (Kl.aerog. 1522E; [2]) [µg/mL]	MIC (E.coli 1507E; [3]) [µg/mL]	also measured
C[C@@H](O)[C@H]1C(=O)N2C(C(=O)O)=C(c3ccc(Cl)cc3)S[C@H]12 [Example 4-Cl]	3.13 (≈ 9.61 µM)	< 0.05	0.1 (≈ 0.307 µM)	12.5 (≈ 38.4 µM)	1.56 (≈ 4.79 µM)	0.05 (≈ 0.153 µM)	0.1 (≈ 0.307 µM)	25 (≈ 76.7 µM)	12.5 (≈ 38.4 µM)	0.05 (≈ 0.153 µM)	12.5 (≈ 38.4 µM)	6.25 (≈ 19.2 µM)	50 (≈ 153 µM)	6.25 (≈ 19.2 µM)	12.5 (≈ 38.4 µM)	0.78 (≈ 2.39 µM)	0.39 (≈ 1.2 µM)	< 0.05			
CSc1cccc(C2=C(C(=O)O)N3C(=O)[C@H]([C@@H](C)O)[C@H]3S2)c1 [Example 3-SCH3]	3.13 (≈ 9.28 µM)	< 0.05	0.19 (≈ 0.563 µM)	6.25 (≈ 18.5 µM)	1.56 (≈ 4.62 µM)	0.1 (≈ 0.296 µM)	0.19 (≈ 0.563 µM)	12.5 (≈ 37 µM)	6.25 (≈ 18.5 µM)	0.05 (≈ 0.148 µM)	6.25 (≈ 18.5 µM)	6.25 (≈ 18.5 µM)	50 (≈ 148 µM)		6.25 (≈ 18.5 µM)	0.39 (≈ 1.16 µM)	0.39 (≈ 1.16 µM)	< 0.05			
COc1ccc(C2=C(C(=O)O)N3C(=O)[C@H]([C@@H](C)O)[C@H]3S2)cc1 [Example 4-OCH3]	3.13 (≈ 9.74 µM)	< 0.05	0.19 (≈ 0.591 µM)	12.5 (≈ 38.9 µM)	3.13 (≈ 9.74 µM)	0.1 (≈ 0.311 µM)	0.19 (≈ 0.591 µM)	25 (≈ 77.8 µM)	12.5 (≈ 38.9 µM)	0.1 (≈ 0.311 µM)	12.5 (≈ 38.9 µM)	12.5 (≈ 38.9 µM)	100 (≈ 311 µM)	6.25 (≈ 19.4 µM)	12.5 (≈ 38.9 µM)	0.78 (≈ 2.43 µM)	0.78 (≈ 2.43 µM)	< 0.05			
C[C@@H](O)[C@H]1C(=O)N2C(C(=O)O)=C(c3ccccc3)S[C@H]12 [H]	0.78 (≈ 2.68 µM)	< 0.05	0.19 (≈ 0.652 µM)	1.56 (≈ 5.35 µM)		0.1 (≈ 0.343 µM)	0.1 (≈ 0.343 µM)	3.12 (≈ 10.7 µM)	3.12 (≈ 10.7 µM)	0.1 (≈ 0.343 µM)	1.56 (≈ 5.35 µM)	1.56 (≈ 5.35 µM)	12.5 (≈ 42.9 µM)		1.56 (≈ 5.35 µM)	0.78 (≈ 2.68 µM)	0.39 (≈ 1.34 µM)	< 0.05			MIC (Str.faecium D): 1.56 µg/mL (≈ 5.35 µM)
CSc1ccc(C2=C(C(=O)O)N3C(=O)[C@H]([C@@H](C)O)[C@H]3S2)cc1 [Example 4-SCH3]	6.25 (≈ 18.5 µM)	< 0.05	0.19 (≈ 0.563 µM)		3.13 (≈ 9.28 µM)		0.19 (≈ 0.563 µM)	50 (≈ 148 µM)	12.5 (≈ 37 µM)	0.1 (≈ 0.296 µM)		12.5 (≈ 37 µM)	50 (≈ 148 µM)	12.5 (≈ 37 µM)	25 (≈ 74.1 µM)	0.78 (≈ 2.31 µM)	0.78 (≈ 2.31 µM)	< 0.05	25 (≈ 74.1 µM)	25 (≈ 74.1 µM)	
C[C@@H](O)[C@H]1C(=O)N2C(C(=O)O)=C(c3ccc(NC=O)cc3)S[C@H]12 [Example 4-NHCHO]	0.19 (≈ 0.568 µM)	< 0.013	0.1 (≈ 0.299 µM)		0.78 (≈ 2.33 µM)	0.05 (≈ 0.15 µM)	0.1 (≈ 0.299 µM)	0.78 (≈ 2.33 µM)	0.39 (≈ 1.17 µM)	0.025 (≈ 0.0748 µM)			6.25 (≈ 18.7 µM)		0.39 (≈ 1.17 µM)	0.19 (≈ 0.568 µM)	0.19 (≈ 0.568 µM)	< 0.013	0.39 (≈ 1.17 µM)	0.39 (≈ 1.17 µM)	MIC (Ent.cloacae 1321E; [4]): 0.39 µg/mL (≈ 1.17 µM)
C[C@@H](O)[C@H]1C(=O)N2C(C(=O)O)=C(c3cccc(NC=O)c3)S[C@H]12 [Example 3-NHCHO, 3-(3-formylaminophenyl)-6-(1-hydroxyethyl)-7-oxo-4-thia-l-azabicyclo[3.2.0]hept-2-ene 2-carboxylic acid]	0.39 (≈ 1.17 µM)	< 0.025	0.19 (≈ 0.568 µM)		1.56 (≈ 4.67 µM)	0.1 (≈ 0.299 µM)	0.19 (≈ 0.568 µM)	1.56 (≈ 4.67 µM)	0.39 (≈ 1.17 µM)	0.1 (≈ 0.299 µM)			12.5 (≈ 37.4 µM)		0.78 (≈ 2.33 µM)	0.39 (≈ 1.17 µM)	0.39 (≈ 1.17 µM)	< 0.025	0.39 (≈ 1.17 µM)	0.78 (≈ 2.33 µM)	MIC (Ent.cloacae 1321E; [4]): 0.39 µg/mL (≈ 1.17 µM)
CC(O)C1C(=O)N2C(C(=O)O)=C(c3ccc(C(N)=O)cc3)SC12 (centres unmarked) [Example 4-CONH2, 3-(4-aminocarbonylphenyl)-6-(1-hydroxyethyl)-7-oxo-4-thia-1-azabicyclo[3.2.0]hept-2-ene 2-carboxylic acid]	0.19 (≈ 0.568 µM)	0.013 (≈ 0.0389 µM)	0.1 (≈ 0.299 µM)		1.56 (≈ 4.67 µM)	0.05 (≈ 0.15 µM)	0.1 (≈ 0.299 µM)	0.78 (≈ 2.33 µM)	0.39 (≈ 1.17 µM)	0.05 (≈ 0.15 µM)			6.25 (≈ 18.7 µM)		0.39 (≈ 1.17 µM)	0.39 (≈ 1.17 µM)	0.39 (≈ 1.17 µM)	0.013 (≈ 0.0389 µM)	0.39 (≈ 1.17 µM)	0.39 (≈ 1.17 µM)	MIC (Ent.cloacae 1321E; [4]): 0.39 µg/mL (≈ 1.17 µM)
C[C@@H](O)[C@H]1C(=O)N2C(C(=O)O)=C(c3cccc(C(N)=O)c3)S[C@H]12 [Example 3-CONH2, 5R,3-(3-aminocarbonylphenyl)-6S-(1R-hydroxyethyl)-7-oxo-4-thia-l-azabicyclo[3.2.0]hept-2-ene-2-carboxylate]	0.1 (≈ 0.299 µM)	0.006 (≈ 0.0179 µM)	0.1 (≈ 0.299 µM)		1.56 (≈ 4.67 µM)	0.05 (≈ 0.15 µM)	0.1 (≈ 0.299 µM)	0.39 (≈ 1.17 µM)	0.1 (≈ 0.299 µM)	0.05 (≈ 0.15 µM)			1.56 (≈ 4.67 µM)		0.19 (≈ 0.568 µM)	0.1 (≈ 0.299 µM)	0.1 (≈ 0.299 µM)	0.013 (≈ 0.0389 µM)	0.19 (≈ 0.568 µM)	0.19 (≈ 0.568 µM)	MIC (Ent.cloacae 1321E; [4]): 0.1 µg/mL (≈ 0.299 µM)
C[C@@H](O)[C@H]1C(=O)N2C(C(=O)O)=C(c3ccc(F)cc3)S[C@H]12 [Example 4-F]	1.56 (≈ 5.04 µM)	< 0.05	0.19 (≈ 0.614 µM)			0.19 (≈ 0.614 µM)	0.19 (≈ 0.614 µM)	25 (≈ 80.8 µM)	6.25 (≈ 20.2 µM)	0.1 (≈ 0.323 µM)	6.25 (≈ 20.2 µM)	3.13 (≈ 10.1 µM)	25 (≈ 80.8 µM)	3.13 (≈ 10.1 µM)	6.25 (≈ 20.2 µM)	1.56 (≈ 5.04 µM)	1.56 (≈ 5.04 µM)	< 0.05	12.5 (≈ 40.4 µM)		MIC (Str.faecium D): 3.13 µg/mL (≈ 10.1 µM)
